According to patent US9205161B2, “Disinfecting composition comprising a chloramine bleaching agent for removable dental appliances” (LMA Solutions, Inc., priority 2014, dated 2015):

Tested on: BL21 E. coli cells
Test: Bacterial kill after contact in LB broth, plating on LB agar
Type: cell-based
Conditions: 15 min exposure at 37° C.; for % Reduction Product / CFU/ml Product / Log reduction Product: MES 25 μM, NaDCC 0.9 mg/ml
Experimental: A working suspension of BL21 E. coli cells in LB broth (1.16×10^8 CFU/ml) was contacted for 15 min at 37° C. with either 1×PBS buffer (control), 2-(N-morpholino)ethanesulfonic acid (“MES”) (final conc. of 25 μM or 0.0049 mg/ml), Sodium Dichloroisocyanurate (“NaDCC”) (final conc. of 0.9 mg/ml), or MES (final conc. of 25 μM or 0.0049 mg/ml)+NaDCC (final conc. of 0.9 mg/ml). Lysogeny broth (LB), a nutritionally rich medium, is primarily used for the growth of bacteria.
After contact, ten-fold serial dilutions from 1:10 to 1:10^6 were prepared using D/E neutralizing broth and an aliquot at each dilution (100 μl) was plated onto an LB agar plate and incubated for 20 hours at 37° C.
The plate shown in FIG. 1A corresponds to treatments with MES-only at a plating dilution of 1:1×10^4. The plate shown in FIG. 1B corresponds to treatments with NaDCC-only at a plating dilution of 1:10. The plate shown FIG. 1C corresponds to treatment with MES+NaDCC at plating dilution of 1:10.

| Compound | Plate count (CFU) (plate dilution 1:1.0E+05, 100 ul plated) | % Reduction Product | CFU/ml Product | Log reduction Product | Plate count (CFU) (plate dilution 1:1.0E+01, 100 ul plated) |
| --- | --- | --- | --- | --- | --- |
| O=S(=O)(O)CCN1CCOCC1 [MES only, 2-(N-morpholino)ethanesulfonic acid] | 128 CFU | −10.3448% | 1.28E+08 CFU/ml | −0.04 | – |
| O=c1nc([O-])n(Cl)c(=O)n1Cl.[Na+] [NaDCC only, Sodium Dichloroisocyanurate] | – | 99.9715% | 3.31E+04 CFU/ml | 3.54 | 331 CFU |
